System: Corticium sasakii
Experiment: Activity against sheath blight on rice caused by Corticium sasakii (protective spray, rice plants cultivar Tai-Nong 67)
Assay type: in vivo
Conditions: individual active compound, 11 days after infection
Protocol: The active compounds, separately or jointly, were prepared as a stock solution with 0.25% by weight of active compound in acetone or DMSO. 1% by weight of the emulsifier Uniperol® EL (wetting agent having emulsifying and dispersing action based on ethoxylated alkylphenols) was added to this solution, and the solution was diluted with water to the desired concentration.
Use Example—Activity Against Sheath Blight on Rice Caused by Corticium sasakii
Pots of rice plants of the cultivar “Tai-Nong 67” were sprayed to runoff point with an aqueous suspension having the concentration of active compound stated below. The next day, oat grains infected with Corticium sasakii were placed into the pots (in each case 5 grains per pot). The plants were then placed in a chamber at 26° C. and maximum atmospheric humidity. After 11 days, the sheath blight on the untreated but infected control plants had developed to such an extent that the infection could be determined visually in %.
Evaluation is carried out by determining the infected leaf areas in percent. These percentages were converted into efficacies.
The efficacy (E) is calculated as follows using Abbot's formula:
E=(1−α/β)·100 • α corresponds to the fungicidal infection of the treated plants in % and • β corresponds to the fungicidal infection of the untreated (control) plants in %
An efficacy of 0 means that the infection level of the treated plants corresponds to that of the untreated control plants; an efficacy of 100 means that the treated plants are not infected.
The expected efficacies of the mixtures of active compounds are determined using Colby's formula [R. S. Colby, Weeds 15, 20-22 (1967)] and compared with the observed efficacies.
E=x+y−x·y/100 • E expected efficacy, expressed in % of the untreated control, when using the mixture of the active compounds A and B at the concentrations a and b • x efficacy, expressed in % of the untreated control, when using active compound A at the concentration a • y efficacy, expressed in % of the untreated control, when using active compound B at the concentration b

Compound | Efficacy in % of the untreated control (4 ppm in the spray liquor) [%] | Efficacy in % of the untreated control (1 ppm in the spray liquor) [%] | Efficacy in % of the untreated control (16 ppm in the spray liquor) [%]
CC1CCN(c2c(-c3c(F)cccc3Cl)c(Cl)nc3ncnn23)CC1 [A] | 12 | – | –
CC(Nc1c(-c2c(F)cc(F)cc2F)c(Cl)nc2ncnn12)C(F)(F)F (stereo not drawn) [B] | 56 | – | –
CC1CCN(c2c(-c3c(F)cc(F)cc3F)c(Cl)nc3ncnn23)CC1 [I, 5-chloro-7-(4-methylpiperidin-1-yl)-6-(2,4,6-trifluorophenyl)-[1,2,4]tri-azolo[1,5-a]pyrimidine] | 34 | – | –
N#Cc1c(Cl)c(Cl)c(Cl)c(C#N)c1Cl [II, 2,4,5,6-tetrachloroisophthalonitrile] | 0 | 0 | 0

Reference: patent publication US20080051284A1, “Fungicidal Mixtures for Controlling Rice Pathogens” (BASF AKTIENGESELLSCHAFT, priority 2003, published 2008)
